Reference: paper PMC5967328, “Salvianolic acids from antithrombotic Traditional Chinese Medicine Danshen are antagonists of human P2Y1 and P2Y12 receptors” (Scientific Reports, 2018)
“Also recorded” adds a separate entry of the source. Where two headings read alike, the source gives them in different places. Values belong to the molecule of their own block, whether it stands above or below them.

Assays:
P2Y12 receptor [1] = target: T1, P2Y12 receptor (Homo sapiens, UniProt Q9H244); assay: Antagonism of 2MeSADP-induced inhibition of forskolin-stimulated cAMP accumulation, Schild analysis; assay type: cell-based; set-up: expressed in transfected cells; host or cells: U2OS cells
T1 sequence (Q9H244 whole entry): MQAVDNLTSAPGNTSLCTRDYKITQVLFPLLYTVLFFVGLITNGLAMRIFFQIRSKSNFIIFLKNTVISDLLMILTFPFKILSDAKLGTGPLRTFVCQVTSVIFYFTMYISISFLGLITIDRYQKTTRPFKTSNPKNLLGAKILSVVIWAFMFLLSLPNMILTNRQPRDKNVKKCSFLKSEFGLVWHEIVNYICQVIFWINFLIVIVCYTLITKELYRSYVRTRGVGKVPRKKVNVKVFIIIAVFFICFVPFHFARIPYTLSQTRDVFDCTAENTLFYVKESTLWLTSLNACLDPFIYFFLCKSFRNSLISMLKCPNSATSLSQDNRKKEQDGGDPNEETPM
Method: The functional antagonism of these three salvianolic acids against the P2Y12 receptor was measured by their effect on agonist-induced inhibition of forskolin-stimulated cyclic AMP accumulation in P2Y12 receptor-expressing U2OS cells. For example, in a concentration-dependent manner, SAA shifted the agonist response curve to the right without affecting its maximum agonist effect (Fig. 2b). This observation is consistent with competitive antagonism, but allosteric antagonism cannot be excluded. Schild analysis of the antagonism yielded KB values of 24.2 ± 5.9, 33.6 ± 6.4 and 23.7 ± 4.5 µM for SAA, SAB and SAC, respectively (Fig. 2c).
U2Os cells expressing the P2Y12 receptor were cultured in DMEM medium containing 10% fetal bovine serum, 100 units/ml penicillin, 100 µg/ml streptomycin and 2 µmol/ml glutamine. For the assay of cAMP accumulation, cells were plated in 96-well plates in 100 µl medium overnight. Cells were then treated with assay buffer containing rolipram ([…]) and antagonists for 20 min followed by the addition of agonists and incubate for 10 min. After 10 min incubation with agonist, Forskolin (10 μM) was added to the mixture and the incubation was continued for another 10 min. The reaction was terminated upon removal of the supernatant and addition of 100 µl Tween-20 (0.3%). Intracellular cAMP levels were measured with an ALPHAScreen cAMP assay kit as instructed by the manufacturer (PerkinElmer). Binding and functional parameters were calculated using Prism 7.0 software (GraphPAD, San Diego, CA, USA). Data were expressed as mean ± sem.

[2] = set-up: method as in PMID 21569331; details: rat plasma, cited from earlier work
P2Y1 receptor [3] = target: T2, P2Y1 receptor (Homo sapiens, UniProt P47900); assay: [3H]2MeSADP radioligand binding at the P2Y1 receptor (U2OS membranes); set-up: expressed in transfected cells; host or cells: U2OS cells (membrane preparation); details: for IC50: average; for inhibitory effect on [3H]2MeSADP binding to the P2Y1 receptor (initial binding results): in words
T2 sequence (P47900 whole entry): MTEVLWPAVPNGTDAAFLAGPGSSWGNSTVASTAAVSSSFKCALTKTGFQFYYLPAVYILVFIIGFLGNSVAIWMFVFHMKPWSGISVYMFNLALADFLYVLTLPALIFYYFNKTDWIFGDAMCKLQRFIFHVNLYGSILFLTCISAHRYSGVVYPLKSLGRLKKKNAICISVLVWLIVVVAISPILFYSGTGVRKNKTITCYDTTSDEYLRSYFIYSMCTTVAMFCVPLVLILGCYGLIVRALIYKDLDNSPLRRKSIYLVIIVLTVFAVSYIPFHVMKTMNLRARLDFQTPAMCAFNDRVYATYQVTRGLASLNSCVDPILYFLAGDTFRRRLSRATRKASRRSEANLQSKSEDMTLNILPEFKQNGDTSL
Method: (§1) Both P2Y1 and P2Y12 receptors play important roles in platelet aggregation. Therefore, we also tested the potential effects of SAA, SAB and SAC on the P2Y1 receptor. […] SAA and SAC antagonized 2MeSADP-induced accumulation of inositol 1-phosphate (IP-1) (Fig. 2e). KB values calculated by Schild analysis for the P2Y1 receptor were 9.1 ± 1.5 and 15.6 ± 2.0 µM for SAA and SAC, respectively (Fig. 2f). Thus, the Schild analysis of the antagonist potencies of SAA and SAC for Gq-coupled P2Y1 and Gi-coupled P2Y12 receptors was consistent with their binding affinities measured in the radioligand assays.
(§2) U2Os cells expressing the P2Y1 or P2Y12 receptors were cultured in DMEM supplemented with 10% fetal bovine serum, 100 Units/ml penicillin, 100 µg/ml streptomycin and 2 µmol/ml glutamine. After reaching confluence, cells were detached from plates by scraping into PBS and centrifuged at 250 g for 5 min. The resulting pellets were re-suspended in ice-cold Tris-HCl buffer (50 mM, pH 7.4) and homogenized. After homogenization and suspension, cells were centrifuged at 1000 g for 10 min and the pellet was discarded. The suspension was re-centrifuged at 20,000 g for 60 min at 4 °C. The pellets were re-suspended, split into aliquots and stored at −80 °C. The protein concentration was measured using the Bradford assay. For P2Y1 and P2Y12 receptor binding assays, saturation curves were measured by addition of various concentrations of 50 µl [^3H]2MeSADP (specific activity, 7.5 Ci/mmol; Movarek Biochemicals, Brea, CA) and 100 μl of membrane suspension to a total of 200 μl of total assay volume. Non-specific binding was determined using 10 µM MRS2500 (Tocris; St. Louis, MO) for the P2Y1 receptor and 10 μM SAR216471 (Tocris; St. Louis, MO) for the P2Y12 receptor. For the displacement assay, various concentrations of inhibitors were incubated with [^3H]2MeSADP (1.0 nM for P2Y1; 0.4 nM for P2Y12) and membrane preparations (20 µg/sample) at 25 °C for 60 min. The separation of bound from free radioligand was accomplished by rapid vacuum filtration of the incubation mixture over GF/B filter using a Brandel cell harvester (Brandel Inc., Gaithersburg, MD). Filters were washed two times with 3 ml of ice-cold Tris-HCl buffer, pH 7.5. Radioactivity on the filters was quantified using a Tri-carb Liquid Scintillation Counter (PerkinElmer Life and Analytical Sciences). 2MeSADP was purchased from Sigma (St. Louis, MO). All other materials were from standard commercial sources and of analytical grade. For radioligand binding, calculation of apparent binding affinities, Ki = IC50/(1 + [radioligand]/Kd), was performed using the nonlinear iterative curve-fitting program of Prism (GraphPad Software Inc., San Diego, CA).
Figure S2. The effects of Tween -20 on the inhibition by SAA (a) and SAC (b) of
[3H]2MeSADP binding to the human P2Y1 recept or. Data are ex pressed Me an ± SD from
2- 3 independent experiments. The average IC50 values of SAA in the absence and
presence of 0.01% Tween- 20 are 21.2 and 19.3 μM, respectivel y. The IC50 values of
SAC in the absence and p resence of 0.01% Tween- 20 are 29.4 and 23.7 μM, respectivel y.
The c ritical micelle concentration (CMC) of Tween -20 is 0.0074%.
(§3) (1 picture or pasted object on this page, not shown here)

P2Y12 receptor [4] = target: T1, P2Y12 receptor; assay: [3H]2MeSADP radioligand binding at the P2Y12 receptor (U2OS membranes); set-up: expressed in transfected cells; host or cells: U2OS cells (membrane preparation)
Method: The eleven selected components were further examined in radioligand binding and functional assays. We initially tested the eleven compounds by measuring the inhibition of [^3H]2-methylthioadenosine 5′-diphosphate (2MeSADP) binding at the human P2Y12 receptor (Fig. 1b).
as §2

P2Y1 receptor [5] = target: T2, P2Y1 receptor; assay: Antagonism of 2MeSADP-induced IP-1 accumulation, Schild analysis; assay type: cell-based; set-up: expressed in transfected cells; host or cells: U2OS cells
Method: as §1
Inositol 1-phosphate (IP-1) was measured using the IP-One Tb HTRF kit (Cisbio Bioassays, Bedford, MA) as described previously[60],[61]. Briefly, after overnight growth, U2Os cells expressing the P2Y1 receptor were first treated with an antagonist for 20 min before the treatment with agonist and incubated for another 60 min. IP-1 detection reagents were added as instructed by the manual from the manufacturer. The assay plates were read on a Mithras LB940 reader (Berthold Technologies, Oak Ridge, TN) using a time-resolved fluorescence ratio (665/620 nm).

α1B adrenergic receptor = target: T3, α1B adrenergic receptor (Homo sapiens, UniProt P35368); assay: [3H]Prazosin binding assay (PDSP)
T3 construct: Psychoactive Drug Screening Program (PDSP)
T3 sequence (P35368 1-520): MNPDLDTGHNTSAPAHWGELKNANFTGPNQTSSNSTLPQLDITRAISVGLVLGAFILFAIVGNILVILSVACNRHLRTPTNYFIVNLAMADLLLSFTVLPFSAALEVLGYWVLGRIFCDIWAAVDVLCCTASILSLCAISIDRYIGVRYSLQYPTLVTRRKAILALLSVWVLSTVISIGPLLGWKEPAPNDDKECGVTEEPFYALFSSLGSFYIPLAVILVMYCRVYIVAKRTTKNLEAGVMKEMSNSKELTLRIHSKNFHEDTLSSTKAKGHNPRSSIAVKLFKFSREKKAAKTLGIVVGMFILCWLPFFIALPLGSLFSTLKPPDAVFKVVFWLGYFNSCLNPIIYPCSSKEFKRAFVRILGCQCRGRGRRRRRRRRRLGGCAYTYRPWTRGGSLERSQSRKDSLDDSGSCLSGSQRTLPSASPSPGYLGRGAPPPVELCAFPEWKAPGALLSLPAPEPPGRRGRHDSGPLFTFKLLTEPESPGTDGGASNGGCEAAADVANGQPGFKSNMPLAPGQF
Excerpt: We also tested if SAA, SAB and SAC are promiscuously binding compounds, due to the fact that they all have multiple phenolic groups and are thus potentially PAINS[36]. To find other possible targets of the three compounds, we evaluated their potential binding to 45 diverse receptors, transporters and ion channels (human, unless noted) using radioligand binding assays via the Psychoactive Drug Screening Program (PDSP) (Table S1)[37].
Figure S3. Binding activit y of SAB (compound 44297) to the α1B adrenergic receptor was measured b y [ 3H]Prazosin binding assays for three repeats (a-c). Prazosin is an inverse agonist of the α1B adrenergic receptor. Th e av erage Ki o f SAB was determined […]
as §3

adrenergic α1B receptor = target: T4, adrenergic α1B receptor (Homo sapiens, UniProt P35368); assay: FLIPR agonist and antagonist assays; assay type: cell-based
T4 construct: expressed in transfected cells
T4 sequence (P35368 1-520): T3 sequence (P35368 1-520)
Method: For agonist assay: cell line expressing target receptor was seeded in a 384-well black-wall, clear-bottom plate about 18 hours prior to the day of experiment and maintained at 37 °C/5% CO2. Then, 20 μl of dye-loading solution was added into the wells and the plates were subsequently placed into a 37 °C incubator for 60 min, followed by a 15 min incubation at room temperature. At last, 10 μl of compounds or control agonist were added into respective wells of the assay plate during reading in FLIPR.
For antagonist assay: cell line expressing target receptor was seeded in a 384-well black-wall, clear-bottom plate about 18 hours prior to the day of experiment and maintained at 37 °C/5% CO2. Then the dye-loading solution and 10 μl of control antagonist and test samples were added into respectively wells in sequence. The plates were subsequently placed into a 37 °C incubator for 60 min, followed by a 15 min incubation at room temperature. At last, 12.5 μl of control agonist were added into respective wells of the assay plate during reading in FLIPR.
The fun ctional activit y of SAB on the adrener gi c α1B re ceptor we re tested b y […]

Structure (SMILES): O=C(/C=C/c1ccc(O)c(O)c1/C=C/c1ccc(O)c(O)c1)O[C@H](Cc1ccc(O)c(O)c1)C(=O)O [SAA, salvianolic acid A]
Kb (P2Y12 receptor [1]): 24.2 ± 5.9 µM
t1/2 ([2]; 100 mg/kg, p.o.): 197 min
Ki (P2Y1 receptor [3]): 14.7 ± 2.4 µM
IC50 (P2Y1 receptor [3]; IC50, inhibition of [3H]2MeSADP binding to human P2Y1 receptor, absence of Tween-20): 21.2 µM
IC50 (P2Y1 receptor [3]; IC50, inhibition of [3H]2MeSADP binding to human P2Y1 receptor, presence of 0.01% Tween-20): 19.3 µM
inhibitory effect on [3H]2MeSADP binding to the P2Y1 receptor (initial binding results) (P2Y1 receptor [3]): substantial inhibitory effect
Ki (P2Y12 receptor [4]): 20.3 ± 1.5 µM
inhibition of [3H]2MeSADP binding at the human P2Y12 receptor (P2Y12 receptor [4]; 100 µM compound): significant inhibitory effect
Kb (P2Y1 receptor [5]): 9.1 ± 1.5 µM

Structure (SMILES): O=C(C=Cc1ccc(O)c2c1C(C(=O)OC(Cc1ccc(O)c(O)c1)C(=O)O)C(c1ccc(O)c(O)c1)O2)OC(Cc1ccc(O)c(O)c1)C(=O)O (stereo not shown) [SAB, salvianolic acid B]
Ki (α1B adrenergic receptor): 6.26 ± 1.46 µM
Kb (P2Y12 receptor [1]): 33.6 ± 6.4 µM
t1/2 ([2]; 100 mg/kg, i.v.): about 105 min
t1/2 ([2]; 500 mg/kg, p.o.): 248 min
inhibitory effect on [3H]2MeSADP binding to the P2Y1 receptor (initial binding results) (P2Y1 receptor [3]): significantly weaker
agonist activity on α1B (adrenergic α1B receptor; FLIPR agonist assay): did not show agonist activity; also recorded: neither agonist nor antagonist
antagonist activity on α1B (adrenergic α1B receptor; FLIPR antagonist assay): did not show antagonist activit y; also recorded: neither agonist nor antagonist
Ki (P2Y12 receptor [4]): 36.4 ± 20.3 µM
inhibition of [3H]2MeSADP binding at the human P2Y12 receptor (P2Y12 receptor [4]; 100 µM compound): significant inhibitory effect

Structure (SMILES): O=C(/C=C/c1ccc(O)c2oc(-c3ccc(O)c(O)c3)cc12)O[C@H](Cc1ccc(O)c(O)c1)C(=O)O [SAC, salvianolic acid C]
Kb (P2Y12 receptor [1]): 23.7 ± 4.5 µM
IC50 (P2Y1 receptor [3]; absence of Tween-20, read-out: IC50, inhibition of [3H]2MeSADP binding to human P2Y1 receptor): 29.4 µM
inhibitory effect on [3H]2MeSADP binding to the P2Y1 receptor (initial binding results) (P2Y1 receptor [3]): substantial inhibitory effect
IC50 (P2Y1 receptor [3]; presence of 0.01% Tween-20, read-out: IC50, inhibition of [3H]2MeSADP binding to human P2Y1 receptor): 23.7 µM
Ki (P2Y1 receptor [3]; vs [3H]2MeSADP (1.0 nM), read-out: Ki, P2Y1 receptor binding): 23.3 ± 4.5 µM
inhibition of [3H]2MeSADP binding at the human P2Y12 receptor (P2Y12 receptor [4]; 100 µM compound): significant inhibitory effect
Ki (P2Y12 receptor [4]; full inhibition curves vs [3H]2MeSADP (0.4 nM), read-out: Ki, P2Y12 receptor binding): 15.6 ± 6.5 µM
Kb (P2Y1 receptor [5]; U2OS cells expressing P2Y1, IP-1 accumulation, read-out: KB (Schild analysis), P2Y1 receptor): 15.6 ± 2 µM

inhibition at 100 µM (P2Y12 receptor [4]; 100 µM compound): 31.6 ± 6.2%
Structure (SMILES): O=C(/C=C/c1ccc(O)c(O)c1)O[C@H](Cc1ccc(O)c(O)c1)C(=O)O [rosmarinic acid]

inhibition of [3H]2MeSADP binding at the human P2Y12 receptor (P2Y12 receptor [4]; 100 µM compound): 33.5 ± 8.6%
Structure (SMILES): O=C(O)Cc1c(/C=C/C(=O)O[C@H](Cc2ccc(O)c(O)c2)C(=O)O)ccc(O)c1O [salvianolic acid D]
